Assay [1] deals with HSD1 enzyme that is expressed in rabbit placenta tissue. Nature of the assay: Inhibition of E1 to E2 conversion in rabbit placenta tissue homogenate. The settings on record: compound 100 nM, 30 nM estrone, 1 mM β-NADPH, 30 min. It is filed as biochemical. The essentials:
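Rabbit placenta homogenate (20 mM KH2PO4, 1 mM EDTA, pH 7.4) incubated 30 min with 1 mM β-NADPH, 30 nM estrone plus 5 nM [3H]-estrone tracer, and inhibitor at 1 μM or 0.1 μM (1% DMSO). Stopped with TCA; estrone and estradiol resolved by HPLC with scintillation counting; % inhibition = 100 − % conversion relative to uninhibited control.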

Assay [2] addresses T1, recombinant human 17β-HSD1 (Homo sapiens, UniProt P14061).
T1 construct: made in house; host or cells: Sd9 (Sf9) insect cells, baculovirus (Bac to Bac Expression System)
T1 sequence (P14061 1-328): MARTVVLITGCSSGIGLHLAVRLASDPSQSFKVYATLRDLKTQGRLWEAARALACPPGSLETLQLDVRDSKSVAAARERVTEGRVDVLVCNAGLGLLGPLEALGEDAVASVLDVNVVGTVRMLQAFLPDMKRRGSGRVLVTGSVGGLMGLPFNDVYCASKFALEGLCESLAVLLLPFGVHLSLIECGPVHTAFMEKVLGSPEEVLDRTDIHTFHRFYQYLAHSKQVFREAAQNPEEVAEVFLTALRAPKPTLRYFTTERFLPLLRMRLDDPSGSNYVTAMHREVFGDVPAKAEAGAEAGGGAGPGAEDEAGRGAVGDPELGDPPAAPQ
Nature of the assay: Inhibition of recombinant human 17β-HSD1 (estrone to estradiol conversion, HPLC/radioactivity). The note with it: compound 100 nM; 30 nM estrone, 1 mM NADPH, 30 min RT. It is filed as biochemical. The essentials:
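Microsomal human 17β-HSD1 from Sf9 baculovirus (1 μg/ml) was incubated 30 min at RT in 20 mM KH2PO4 pH 7.4 with 30 nM ^3H-estrone, 1 mM NADPH and inhibitor at 1 μM or 0.1 μM (1% DMSO). Estrone and estradiol were separated by HPLC with radioactivity detection. % inhibition = 100 − % conversion relative to uninhibited control.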

For the molecule `C[C@]12CCC3c4ccc(F)cc4CCC3C1[C@H](CCC(=O)Nc1ccc(N3CCOCC3)cn1)c1c[nH]nc12` (stereo partly drawn) [Compound 96, 3-((8aS,12S)-4-fluoro-8a-methyl-1,2,6b,7,8,8a,10,12,12a,12b-decahydronaphtho[2′,1′:4,5]indeno[1,2-c]pyrazol-12-yl)-N-(5-morpholinopyridin-2-yl)propanamide], the “Rabbit placenta inhibition % @100 nM” value in assay [1] is recorded as 42%. Besides, the inhibition at 0.1 µM in assay [2] was determined as 74%.

With `C[C@]12CCC3c4ccc(F)cc4CCC3C1[C@H](CCC(=O)Nc1ccc(F)cn1)c1c[nH]nc12` (stereo partly drawn) [Compound 99, 3-((8aS,12S)-4-fluoro-8a-methyl-1,2,6b,7,8,8a,10,12,12a,12b-decahydronaphtho[2′,1′:4,5]indeno[1,2-c]pyrazol-12-yl)-N-(5-fluoropyridin-2-yl)propanamide], the “Rabbit placenta inhibition % @100 nM” value in assay [1] was found to be 10%. In assay [2], the inhibition at 0.1 µM came out at 84%.

On to `C[C@]12CCC3c4ccc(Cl)cc4CCC3C1[C@H](CCC(=O)Nc1cc3c([nH]c1=O)CCCC3)c1c[nH]nc12` (stereo partly drawn) [Compound 123, 3-((8aS,12S)-4-chloro-8a-methyl-1,2,6b,7,8,8a,10,12,12a,12b-decahydronaphtho[2′,1′:4,5]indeno[1,2-c]pyrazol-12-yl)-N-(2-oxo-1,2,5,6,7,8-hexahydroquinolin-3-yl) propanamide], for which, in assay [1], the “Rabbit placenta inhibition % @100 nM” value came out at 17%. Also, the inhibition at 0.1 µM in assay [2] came to 87%.

With `CN(C)C(=O)c1ccc(NC(=O)CC[C@@H]2c3c[nH]nc3[C@@]3(C)CCC4c5ccc(Cl)cc5CCC4C23)nc1` (stereo partly drawn) [Compound 126, 6-(3-((8aS,12S)-4-chloro-8a-methyl-1,2,6b,7,8,8a,10,12,12a,12b-decahydronaphtho[2′,1′:4,5]indeno[1,2-c]pyrazol-12-yl)propanamido)-N,N-dimethylnicotinamide], the “Rabbit placenta inhibition % @100 nM” value in assay [1] is recorded as 37%. Also, the inhibition at 0.1 µM in assay [2] is 89%.

Consider `CC(C)c1ccc(NC(=O)CC[C@@H]2c3c[nH]nc3[C@@]3(C)CCC4c5ccccc5CCC4C23)nc1` (stereo partly drawn) [Compound 138, N-(5-isopropylpyridin-2-yl)-3-((8aS,12S)-8a-methyl-1,2,6b,7,8,8a,10,12,12a,12b-decahydronaphtho[2′,1′:4,5]indeno[1,2-c]pyrazol-12-yl)propanamide], for which, in assay [1], the “Rabbit placenta inhibition % @100 nM” value amounted to 18%. In assay [2], the inhibition at 0.1 µM was 94%.

As to `COc1ccc(NC(=O)CC[C@@H]2c3c[nH]nc3[C@@]3(C)CCC4c5ccccc5CCC4C23)nc1` (stereo partly drawn) [Compound 141, N-(5-methoxypyridin-2-yl)-3-((8aS,12S)-8a-methyl-1,2,6b,7,8,8a,10,12,12a,12b-decahydronaphtho[2′,1′:4,5]indeno[1,2-c]pyrazol-12-yl)propanamide], the “Rabbit placenta inhibition % @100 nM” value in assay [1] turned out to be 35%. In addition, the inhibition at 0.1 µM in assay [2] amounted to 93%.

As to `COc1ccc(NC(=O)CC[C@@H]2c3c[nH]nc3[C@@]3(C)CCC4c5ccccc5CCC4C23)nn1` (stereo partly drawn) [Compound 156, N-(6-methoxypyridazin-3-yl)-3-((8aS,12S)-8a-methyl-1,2,6b,7,8,8a,10,12,12a,12b-decahydronaphtho[2′,1′:4,5]indeno[1,2-c]pyrazol-12-yl)propanamide], the “Rabbit placenta inhibition % @100 nM” value in assay [1] came to 56%. Also, the inhibition at 0.1 µM in assay [2] was 81%.

Regarding `C[C@]12CCC3c4ccccc4CCC3C1[C@H](CCC(=O)Nc1ccc(F)cn1)c1c[nH]nc12` (stereo partly drawn) [Compound 159, N-(5-fluoropyridin-2-yl)-3-((8aS,12S)-8a-methyl-1,2,6b,7,8,8a,10,12,12a,12b-decahydronaphtho[2′,1′:4,5]indeno[1,2-c]pyrazol-12-yl)propanamide], in assay [1], the “Rabbit placenta inhibition % @100 nM” value came to 23%. In addition, in assay [2], the inhibition at 0.1 µM worked out at 90%.

With `C[C@]12CCC3c4ccccc4CCC3C1[C@H](CCC(=O)Nc1cc(F)ccn1)c1c[nH]nc12` (stereo partly drawn) [Compound 162, N-(4-fluoropyridin-2-yl)-3-((8aS,12S)-8a-methyl-1,2,6b,7,8,8a,10,12,12a,12b-decahydronaphtho[2′,1′:4,5]indeno[1,2-c]pyrazol-12-yl)propanamide], the “Rabbit placenta inhibition % @100 nM” value in assay [1] is on record as 44%. For the same molecule, the inhibition at 0.1 µM in assay [2] worked out at 91%.

`COc1ccnc(NC(=O)CC[C@@H]2c3c[nH]nc3[C@@]3(C)CCC4c5ccccc5CCC4C23)c1` (stereo partly drawn) [Compound 165, N-(4-methoxypyridin-2-yl)-3-((8aS,12S)-8a-methyl-1,2,6b,7,8,8a,10,12,12a,12b-decahydronaphtho[2′1′:4,5]indeno[1,2-c]pyrazol-12-yl)propanamide]: the “Rabbit placenta inhibition % @100 nM” value in assay [1] worked out at 34%. Also, in assay [2], the inhibition at 0.1 µM was 85%.

Regarding `Cc1ccnc(NC(=O)CC[C@@H]2c3c[nH]nc3[C@@]3(C)CCC4c5ccccc5CCC4C23)c1` (stereo partly drawn) [Compound 168, 3-((8aS,12S)-8a-methyl-1,2,6b,7,8,8a,10,12,12a,12b-decahydronaphtho[2′,1′:4,5]indeno[1,2-c]pyrazol-12-yl)-N-(4-methylpyridin-2-yl)propanamide], the “Rabbit placenta inhibition % @100 nM” value in assay [1] was 58%. Further, the inhibition at 0.1 µM in assay [2] is 90%.

Regarding `C[C@]12CCC3c4ccccc4CCC3C1[C@H](CCC(=O)Nc1ccccn1)c1c[nH]nc12` (stereo partly drawn) [Compound 171, 3-((8aS,12S)-8a-methyl-1,2,6b,7,8,8a,10,12,12a,12b-decahydronaphtho[2′,1′:4,5]indeno[1,2-c]pyrazol-12-yl)-N-(pyridin-2-yl)propanamide], in assay [1], the “Rabbit placenta inhibition % @100 nM” value came out at 27%. Also, in assay [2], the inhibition at 0.1 µM is 89%.

For the molecule `C[C@]12CCC3c4ccccc4CCC3C1[C@H](CCC(=O)Nc1cnccn1)c1c[nH]nc12` (stereo partly drawn) [Compound 189, 3-((8aS,12S)-8a-methyl-1,2,6b,7,8,8a,10,12,12a,12b-decahydronaphtho[2′,1′:4,5]indeno[1,2-c]pyrazol-12-yl)-N-(pyrazin-2-yl)propanamide], the “Rabbit placenta inhibition % @100 nM” value in assay [1] is listed as 46%. Further, the inhibition at 0.1 µM in assay [2] was determined as 90%.

Regarding `C[C@]12CCC3c4cccc(F)c4CCC3C1[C@H](CCC(=O)NC1CCCCC1)c1c[nH]nc12` (stereo partly drawn) [Compound 207, N-cyclohexyl-3-((8aS,12S)-3-fluoro-8a-methyl-1,2,6b,7,8,8a,10,12,12a,12b-decahydronaphtho[2′,1′:4,5]indeno[1,2-c]pyrazol-12-yl)propanamide], the “Rabbit placenta inhibition % @100 nM” value in assay [1] is 14%. In addition, the inhibition at 0.1 µM in assay [2] was 95%.

`C[C@]12CCC3c4cccc(F)c4CCC3C1[C@H](CCC(=O)N1CCCC1)c1c[nH]nc12` (stereo partly drawn) [Compound 210, 3-((8aS,12S)-3-fluoro-8a-methyl-1,2,6b,7,8,8a,10,12,12a,12b-decahydronaphtho[2′,1′:4,5]indeno[1,2-c]pyrazol-12-yl)-1-(pyrrolidin-1-yl)propan-1-one]: the “Rabbit placenta inhibition % @100 nM” value in assay [1] is given as 19%. Moreover, in assay [2], the inhibition at 0.1 µM stood at 94%.

Regarding `CCN(CC)C(=O)CC[C@@H]1c2c[nH]nc2[C@@]2(C)CCC3c4cccc(F)c4CCC3C12` (stereo partly drawn) [Compound 216, N,N-diethyl-3-((8aS,12S)-3-fluoro-8a-methyl-1,2,6b,7,8,8a,10,12,12a,12b-decahydronaphtho[2′,1′:4,5]indeno[1,2-c]pyrazol-12-yl)propanamide], the “Rabbit placenta inhibition % @100 nM” value in assay [1] is 10%. Also, in assay [2], the inhibition at 0.1 µM stood at 93%.

As for `C[C@]12CCC3c4cccc(F)c4CCC3C1[C@H](CCC(=O)N1CCC3(CCOCC3)C1)c1c[nH]nc12` (stereo partly drawn) [Compound 219, 3-((8aS,12S)-3-fluoro-8a-methyl-1,2,6b,7,8,8a,10,12,12a,12b-decahydronaphtho[2′,1′:4,5]indeno[1,2-c]pyrazol-12-yl)-1-(8-oxa-2-azaspiro[4.5]decan-2-yl)propan-1-one], the “Rabbit placenta inhibition % @100 nM” value in assay [1] came out at 14%. The inhibition at 0.1 µM in assay [2] was 91%.

Consider `CN(C)C(=O)CC[C@@H]1c2c[nH]nc2[C@@]2(C)CCC3c4cccc(F)c4CCC3C12` (stereo partly drawn) [Compound 222, 3-((8aS,12S)-3-fluoro-8a-methyl-1,2,6b,7,8,8a,10,12,12a,12b-decahydronaphtho[2′,1′:4,5]indeno[1,2-c]pyrazol-12-yl)-N,N-dimethylpropanamide], for which, in assay [1], the “Rabbit placenta inhibition % @100 nM” value was determined as 11%. In addition, the inhibition at 0.1 µM in assay [2] was 91%.

Consider `C[C@]12CCC3c4cccc(F)c4CCC3C1[C@H](CCC(=O)Nc1ncccc1F)c1c[nH]nc12` (stereo partly drawn) [Compound 231, 3-((8aS,12S)-3-fluoro-8a-methyl-1,2,6b,7,8,8a,10,12,12a,12b-decahydronaphtho[2′,1′:4,5]indeno[1,2-c]pyrazol-12-yl)-N-(3-fluoropyridin-2-yl)propanamide], for which the “Rabbit placenta inhibition % @100 nM” value in assay [1] is given as 35%. In addition, the inhibition at 0.1 µM in assay [2] was 86%.

Values taken from patent US20220041647A1, “ESTRA-1,3,5(10)-TRIENE COMPOUNDS CONDENSED IN POSITION 16(17) WITH A PYRAZOLE RING AS INHIBITORS OF 17-HSD1” (FORENDO PHARMA LTD, priority 2018, published 2022).
